The subject of assay [1] is Fusarium oxysporum f. sp. cubense TR4 (FocTR4). Description: In vivo preventative testing using banana plants, soil application before inoculation. The following applies: concluded from the banana plant data; ppm of BAC. As for the experimental part: The efficacy of a fungicidal composition of the present invention was tested against Fusarium oxysporum f. sp. cubense TR4 (FocTR4), the fungal pathogen responsible for Panama wilt of banana, for use as a preventative.
Banana seedlings (cv. Berangan, 2-month-old) were obtained from Malaysian Agricultural Research and Development Institute (MARDI). Soil was prepared in polybags and sterilized using a large capacity autoclave at the Institute of Plantation Sciences (IKP). Seedlings were allowed to acclimatize in a greenhouse for approximately two months, reaching a height of about 50 cm, before being inoculated with FocTR4. Plants were watered with a dripping system, and fertilized with NPK.
The seedlings were used in a randomized complete block design (RCBD) with seven treatments: healthy control, disease control, four concentrations (100 ppm, 300 ppm, 500 ppm and 700 ppm), and a commercial fungicide. For the four concentrations tested, compositions were either a test solution as described in Example 2, or a polymer control (as described in Example 1 with acrylamide polymer omitted). […]
Four replications were used for each treatment, with four plants per replicate. […] Seedlings were assessed after inoculation to measure disease incidence (DI) and disease severity (DSI). […] DSI was measured by estimating the proportion of plant surface area was infected. […]

For assay [2], the system named is P. palmivora. Description: In vivo testing using cocoa pods, pre-treated then inoculated. Further details: species or system Phytophthora palmivora. As for the experimental part:
The efficacy of a fungicidal composition of the present invention was tested against P. palmivora. Healthy, green cocoa pods were picked, prior to artificial inoculation with Phytophthora isolate M5. One highly virulent P. palmivora isolate (MI 5 from Sabah) with 5 replicates (pods) were used as the control.
Each pod was washed carefully three times with sterile distilled water, the surface was disinfected for 2 minutes in 75% ethanol, and pods were air-dried at room temperature (25±2° C.). Different concentrations of the composition of the present invention (0-540 ppm) were prepared as for Examples 3 and 4, using the composition described in Example 1 which contained a polymeric film-forming agent, and spread on the pod surface to cover the whole pod. Cocoa pods with sterile distilled water were included as a negative control. After spreading, the pre-treated pods were inoculated with a 12 mm plug of 5-day old culture of P. palmivora grown on CMA plates by placing over the intact skin at the centre of each cocoa pod (see FIGS. 3A-I). The resulting pods were kept in moist plastic trays, covered with black polythene sheets to maintain moisture level, and incubated at 25±2° C. in the dark for seven days.

Assay [3] has as its system P. palmivora. Nature of the assay: In vivo testing using durian fruit, pre-treated then inoculated. Further details: species or system Phytophthora palmivora. Conditions: concluded from the durian fruit data; ppm of BAC. The procedure:
Healthy durian fruits were harvested carefully from a durian plantation, for artificial inoculation with Phytophthora isolate DB4. Untreated durian fruits with five replicates were used as the control. Fungicidal compositions were prepared, as for Example 5, then applied to the fruit surface. Durian fruits with sterile distilled water were included as a negative control. The pre-treated fruits were inoculated with a 12 mm plug of a 5-day old culture of P. palmivora grown on CMA plates by placing over the intact skin at the centre of each fruit. The resulting durian fruits were kept in moist plastic trays, covered with black polythene sheets to maintain moisture level, and incubated at 25±2° C. in the dark for seven days. Measurement of lesions were made at seven days after inoculation.

For assay [4], the system named is Phytophthora palmivora. Nature of the assay: In vitro poison agar test, mycelial growth on corn meal agar. The assay is classed as cell-based. Conditions: concluded from the in vitro data; ppm of BAC. The procedure: In vitro tests were performed against Phytophthora palmivora, the pathogen responsible for pod rot of cocoa, stem canker of durian and rubber, and foot rot of pepper, using a poison agar method as discussed below.
A stock solution was prepared with (a) BAC (50% w/v in water, 180 mL), (b) STPP (25 g), and (c) BL8 (120 mL), with enough water to provide a total volume of 1 L.
Corn meal agar (CMA, 17 g) medium (Oxoid™, Thermo Scientific) was added to distilled or deionized water (1 L) in accordance with the manufacturer's instruction before autoclaving at 121° C. for 20 minutes and cooling to 50-55° C. in a water bath. To the resulting mixture was added the stock solution described above, in accordance with the amounts in Table 3, or sterile distilled water (control sample). Five replications for each treatment were prepared, and the experiment was carried out using a completely randomized design (CRD).
Mycelial growth in each treatment was recorded within seven days after incubation at room temperature with natural dark/light cycle in reference to the growth of the control. Percent inhibition of diameter growth (% PIDG) was calculated as follows:
[formula] • where: dc=average diameter of fungal colony in the control plate, and • dt=average diameter of fungal colony in the treatment plate. […]

Assay [5] concerns Fusarium oxysporum f. sp. cubense TR4 (FocTR4). Nature of the assay: In vitro poison agar test, mycelial growth on potato dextrose agar. Conditions: concluded from the in vitro data; ppm of BAC. The assay is classed as cell-based. As for the experimental part:
In vitro tests were performed against Fusarium oxysporum f. sp. cubense TR4 (FocTR4), the fungal pathogen responsible for Panama wilt of banana, using a poison agar method as discussed below.
Potato dextrose agar (PDA, 39 g) medium (Difco™) was added to distilled or deionized water (1 L) in accordance with the manufacturer's instruction before autoclaving at 121° C. for 20 minutes and cooling to 50-55° C. in a water bath. To the resulting mixture was added the stock solution of Example 3, in accordance with the amounts in Table 5, or sterile distilled water (control sample). Five replications for each treatment were prepared, and the experiment was carried out using a completely randomized design (CRD).
Mycelial growth in each treatment was recorded within seven days after incubation at room temperature with natural dark/light cycle in reference to the growth of the control. Percent inhibition of diameter growth (% PIDG) was calculated as described above. Analyses of statistical data were carried out using the standard analysis of variance (ANOVA) procedure using SAS software (version 9.2).

For the substance benzalkonium chloride [BAC], the “effective concentration for controlling a fungus such as Fusarium, when applied to the soil” value in assay [1] is given as 500-2000 ppm. In addition, the “pods showing fungal infection around plug” value in assay [2] (cocoa pods treated with 18 ppm BAC, FIG. 3B) was “four out of five pods show fungal infection around plug”; in assay [2] (cocoa pods treated with 36 ppm BAC, FIG. 3C), “four out of five pods show fungal infection around plug”; in assay [2] (cocoa pods treated with 54 ppm BAC, FIG. 3D) it was “three out of five pods show fungal infection around plug”; in assay [2] (cocoa pods treated with 72 ppm BAC, FIG. 3E) it was “two out of five pods show fungal infection around plug”; in assay [2] (cocoa pods treated with 90, 180, 360 and 540 ppm BAC, FIG. 3F-I), “no fungal infection around plug”. In addition, the “effective concentration for controlling an oomycete such as P. palmivora when applied to the fruit” value in assay [2] (concluded from the cocoa pod data, ppm of BAC) was 15-750 ppm; in assay [3] it was 15-750 ppm. Moreover, the “effective concentration for controlling an oomycete such as Phytophthora” value in assay [4] is reported as 15-750 ppm. In addition, the “effective concentration for controlling a fungus such as Fusarium” value in assay [5] is listed as 500-2000 ppm.

For the origin of these results see patent US20250049027A1, “PLANT PATHOGEN COMPOSITION” (Robjulz Pty. Ltd., priority 2021, published 2025).
